According to the NIST ThermoML archive (doi:10.1016/j.fluid.2005.03.028):

Assay: excess molar enthalpy (molar enthalpy of mixing); xn = mol fraction of the nth substance listed
Settings: 303.15 K, 101.3 kPa, Liquid

Cc1cccc(C)n1 [2,6-dimethylpyridine] + CCCCCC
Settings | excess molar enthalpy [kcal/mol]
x1 = 0.1061 | 0.1
x1 = 0.2206 | 0.171
x1 = 0.2931 | 0.202
x1 = 0.3822 | 0.215
x1 = 0.4338 | 0.221
x1 = 0.4341 | 0.22
x1 = 0.4507 | 0.226
x1 = 0.5516 | 0.223
x1 = 0.6172 | 0.215
x1 = 0.7034 | 0.191
x1 = 0.7949 | 0.141
x1 = 0.884 | 0.0844

Cc1cncc(C)c1 [3,5-dimethylpyridine] + CCCCCCCC
Settings | excess molar enthalpy [kcal/mol]
x1 = 0.1056 | 0.133
x1 = 0.2504 | 0.24
x1 = 0.3971 | 0.294
x1 = 0.4266 | 0.301
x1 = 0.4971 | 0.304
x1 = 0.5313 | 0.305
x1 = 0.5417 | 0.303
x1 = 0.6032 | 0.293
x1 = 0.7289 | 0.237
x1 = 0.8127 | 0.184
x1 = 0.914 | 0.0915

Cc1cccc(C)n1 [2,6-dimethylpyridine] + CCCCCCCC
Settings | excess molar enthalpy [kcal/mol]
x1 = 0.108 | 0.12
x1 = 0.199 | 0.172
x1 = 0.202 | 0.182
x1 = 0.346 | 0.233
x1 = 0.413 | 0.246
x1 = 0.506 | 0.251
x1 = 0.597 | 0.246
x1 = 0.698 | 0.217
x1 = 0.708 | 0.208

Cc1cncc(C)c1 [3,5-dimethylpyridine] + CCCCCC
Settings | excess molar enthalpy [kcal/mol]
x1 = 0.1064 | 0.137
x1 = 0.1889 | 0.201
x1 = 0.314 | 0.259
x1 = 0.434 | 0.275
x1 = 0.5119 | 0.278
x1 = 0.6092 | 0.26
x1 = 0.7259 | 0.214
x1 = 0.775 | 0.191
x1 = 0.8934 | 0.0978
x1 = 0.9495 | 0.0492

Cc1cccc(C)n1 [2,6-dimethylpyridine] + CCCCCCC
Settings | excess molar enthalpy [kcal/mol]
x1 = 0.1137 | 0.114
x1 = 0.1939 | 0.16
x1 = 0.26 | 0.194
x1 = 0.313 | 0.211
x1 = 0.318 | 0.216
x1 = 0.365 | 0.226
x1 = 0.4264 | 0.237
x1 = 0.46 | 0.241
x1 = 0.5077 | 0.242
x1 = 0.58 | 0.227
x1 = 0.7064 | 0.202
x1 = 0.7851 | 0.165
x1 = 0.857 | 0.123

Cc1cncc(C)c1 [3,5-dimethylpyridine] + CCCCCCC
Settings | excess molar enthalpy [kcal/mol]
x1 = 0.0712 | 0.0951
x1 = 0.2287 | 0.217
x1 = 0.2961 | 0.258
x1 = 0.3799 | 0.281
x1 = 0.4475 | 0.296
x1 = 0.497 | 0.293
x1 = 0.5013 | 0.294
x1 = 0.5962 | 0.283
x1 = 0.6871 | 0.249
x1 = 0.7428 | 0.219
x1 = 0.85 | 0.137
